# Results reported in PubChem BioAssay AID1949 (Southern Research Institute, 2009).
# Results filed as inconclusive are left out. Calls of active or inactive are those of the source. No rule for the calls is given here.
# Test system: M. tuberculosis H37Rv growth inhibition
# Assay: Confirmatory growth inhibition assay against Mycobacterium tuberculosis H37Rv, potency (AID 1949);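 also: bacteria grown 7 days with compound before Alamar blue readout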
row,SMILES,IC50
1,COC(=O)CSc1nc2sc3c(c2c(=O)n1Cc1ccccc1)CCC(C(C)(C)C)C3 (centres undefined),> 50 µg/mL (inactive)
2,Cc1ccc(Cl)cc1N1CCN(C(=O)C2CCN(C(=O)c3ccc(C(C)(C)C)cc3)CC2)CC1,3.38 µg/mL
3,CCCNC(=S)NC(=O)c1ccc(C(C)(C)C)cc1,17 µg/mL
4,COc1ccc(CNCCC(c2ccc(OC)cc2)c2ccccc2OC)cc1 (centres undefined),8 µg/mL
5,N#Cc1ccc(NC(=O)C23CC4CC(CC(C4)C2)C3)cc1,23.7 µg/mL
6,CCCCc1ccc2nc(NC(=O)c3cccs3)sc2c1,6.52 µg/mL
7,COc1cc2c(cc1NC(=O)C(=O)NCCCN1CCOCC1)oc1ccccc12,> 50 µg/mL (inactive)
8,CCN(CC)CCSc1nc2sc3c(c2c(=O)n1-c1ccc(OC)cc1)CCCC3,> 50 µg/mL (inactive)
9,CC1=NN(c2nc3ccccc3s2)C(=O)C1Cc1cccc2ccccc12 (centres undefined),0.3 µg/mL
10,CC(C)(C)c1ccc(C(=O)NC(=S)Nc2cccc(C#N)c2)cc1,> 50 µg/mL (inactive)
11,Cc1ccc(-c2ccc(/C=C/C(=O)c3ccco3)o2)cc1,1.71 µg/mL
12,COC(=O)CSc1[nH]c2ccc(F)cc2c1[N+](=O)[O-],23.2 µg/mL
13,CC(C)(C)c1ccc(C(=O)NC(=S)N2CCCC2)cc1,1.35 µg/mL
14,Cc1cc(C)c(OCCCCNCc2ccccc2)c(Cl)c1,5.18 µg/mL
15,CC(C)(C)NCCCOc1ccc(Cl)cc1C(C)(C)C,23.3 µg/mL
16,CC(C)c1ccc(NC(=S)NC(=O)c2ccccc2F)cc1,2.56 µg/mL
17,CCC(=O)N1CCN(c2ccc(Cl)cc2NC(=O)CC23CC4CC(CC(C4)C2)C3)CC1,6.98 µg/mL
18,O=C(Nc1ccc([N+](=O)[O-])cc1)c1cc(Br)ccc1O,17.9 µg/mL
19,COC(=O)COc1ccc2cc(-c3ccc(OC)c(OC)c3)c(=O)oc2c1,1.03 µg/mL
20,Clc1ccc(Cn2ncc3c(NCc4ccccc4)ncnc32)cc1,6.27 µg/mL
21,Cc1ccc(OCCCCNCCc2ccccc2)c(C)c1,9.13 µg/mL
22,CC(C)(C)c1ccc(C(=O)NC(=S)NCc2ccco2)cc1,2.16 µg/mL
23,Cn1nc([N+](=O)[O-])nc1Sc1nnc(-c2cccnc2)o1,2.49 µg/mL

row,SMILES,IC50
1,O=C1C(Cl)=C(N2CCOCC2)C(=O)N1c1cccc(Cl)c1Cl,20.9 µg/mL
2,CCCc1cc2c(=O)c(-c3ccc4c(c3)OCCCO4)coc2cc1OCC(=O)OCC,0.3 µg/mL
3,COc1ccc2c(c1)CCC1Sc3ccccc3N=C21 (centres undefined),1.43 µg/mL
4,CC(=O)c1ccc(NC(=O)Nc2cc(OCC(F)(F)F)cc(OCC(F)(F)C(F)F)c2)cc1,2.74 µg/mL
5,CC(=O)Nc1ccc2cccc(O)c2n1,0.96 µg/mL
6,COc1ccc(C(=O)Oc2ccc(C(=O)OCc3ccccc3)cc2)cc1OC,1.39 µg/mL
7,CCOC(=O)c1ccc2nc(C)cc(Nc3ccc(N4CCCCC4)cc3)c2c1,2.41 µg/mL
8,C=CCNCCCCOc1ccc(Cl)cc1C(C)(C)C,4.64 µg/mL
9,CCOC(=O)/C(C#N)=C/c1ccc(-c2ccc(F)cc2)o1,0.25 µg/mL
10,Cc1ccc(-c2nn(-c3ccccc3)cc2CNCc2ccccc2)o1,9.25 µg/mL
11,COc1ccc(-c2csc(-c3ccc(OC)c(OC)c3)n2)cc1C,< 0.1 µg/mL
12,Cc1cc2ncn(CC(O)COc3ccc(C(C)C)cc3)c2cc1C (centres undefined),5.42 µg/mL
13,O=C(CC(O)(C(F)(F)F)C(F)(F)F)Nc1cccc(C(F)(F)F)c1,3.59 µg/mL
14,CCOC(=O)Cc1c(C)nc2c(-c3cccc(Br)c3)c[nH]n2c1=O,1.69 µg/mL
15,CCN1C(=O)c2cccc3cc([N+](=O)[O-])cc(c23)C1=O,< 0.1 µg/mL
16,C=CCc1cc(/C=C/[N+](=O)[O-])cc(OCC)c1O,5.69 µg/mL
17,O=C(CC12CC3CC(CC(C3)C1)C2)Nc1cccc(C(F)(F)F)c1,0.97 µg/mL
18,CC1C(c2ccc(Cl)cc2)NC(c2ccc(Cl)cc2)C(C)C1(O)c1ccc(F)cc1 (centres undefined),> 50 µg/mL (inactive)
19,O=C(CCNc1ccc(F)c(Cl)c1)c1cccs1,4.3 µg/mL
20,CC(=O)OCC#CCSc1nnc(-c2ccc(Br)cc2)o1,< 0.1 µg/mL
21,Cc1cccc(NC(=S)NCCN2CCN(c3ccc(F)c(Cl)c3)CC2)c1C,2.79 µg/mL
22,N#Cc1ccccc1-c1ccc(/C=C/[N+](=O)[O-])o1,> 50 µg/mL (inactive)
23,Cc1ccc(-n2c(=O)oc3ccc(Cl)cc3c2=O)cc1Cl,1.08 µg/mL

row,SMILES,IC50
1,Cc1ccc(OC(F)F)c(NC(=O)Nc2ccc([N+](=O)[O-])cc2)c1,22.4 µg/mL
2,Cc1ccc(C(=O)NCCC2=CCCCC2)cc1Br,3.14 µg/mL
3,O=C1c2cccc3cccc(c23)C(=O)N1CC1CCN(CC(O)COc2ccc3ccccc3c2)CC1 (centres undefined),0.84 µg/mL
4,Cc1ccc(C(=O)N2CCN(c3ccc(NC(=O)COc4c(C)cc(C)cc4Br)cc3)CC2)cc1,1.34 µg/mL
5,Cc1ccc2[nH]c3c(c2c1)CCCC3NCC(O)Cc1ccccc1 (centres undefined),6.03 µg/mL
6,Oc1ccccc1-c1n[nH]c(/C=C/c2ccccc2Cl)n1,6.45 µg/mL
7,CCn1cc(C(=O)O)c(=O)c2cnc(N3CCN(C(=S)Nc4sc5c(c4C(=O)OC)CCCCCC5)CC3)nc21,> 50 µg/mL (inactive)
8,COC(=O)c1cc(NC(=O)Nc2cccc(Cl)c2)cc(C(=O)OC)c1,0.18 µg/mL
9,O=C1c2ccc(-c3nc4ccccc4c(=O)o3)cc2C(=O)N1Cc1ccccc1,> 50 µg/mL (inactive)
10,Cc1ccc(-c2csc(-c3ccc(O)cc3)n2)cc1,2.69 µg/mL
11,O=C(/C=C/c1cccc(C(F)(F)F)c1)Nc1ccc(Cl)cc1,5.09 µg/mL
12,CS(=O)(=O)c1ncc(Cl)c(C(=O)Nc2cc(C(F)(F)F)ccc2Cl)n1,17.1 µg/mL
13,Cc1ccc(C)c(-c2nn(-c3cc(N4CCN(C)CC4)ccc3[N+](=O)[O-])c(=O)c3ccccc23)c1,1.76 µg/mL
14,CCOC(=O)CSC1=C(C#N)C(c2ccccc2[N+](=O)[O-])C(C(C)=O)=C(C)N1 (centres undefined),1.41 µg/mL
15,Cc1ccc(NC(=O)C(=O)NNC(=O)c2ccco2)cc1Cl,1.41 µg/mL
16,Cc1ccc(C)c(NC(=O)c2ccc(-c3ccccc3Cl)o2)c1,12.9 µg/mL
17,O=[N+]([O-])c1ccc(-c2[nH]c(-c3cccc(F)c3)nc2-c2ccccc2)cc1,2.62 µg/mL
18,COc1ccc(OCc2nn3c(-c4ccc(C(C)(C)C)cc4)nnc3s2)cc1,> 50 µg/mL (inactive)
19,O=[N+]([O-])c1cc(CN2CCN(c3ccccc3)CC2)c(O)c2ncccc12,6.09 µg/mL
20,Cc1ccc(O)c(C2=NNC(c3ccc(Cl)cc3)C2)c1 (centres undefined),4.76 µg/mL
21,C=CCc1ccccc1OCCCCn1ccnc1,3.93 µg/mL
22,CCCCNCCOc1ccc2ccccc2c1Br,7.65 µg/mL
23,CC1CCc2c(sc3ncn(C(C)C(=O)OCc4ccccc4)c(=O)c23)C1 (centres undefined),1.53 µg/mL

row,SMILES,IC50
1,Cc1ccc(-c2csc(-c3ccncc3)n2)cc1C,1.85 µg/mL
2,CC1CCc2c(sc3ncnc(Nc4ccc(OCc5ccccc5)cc4)c23)C1 (centres undefined),> 50 µg/mL (inactive)
3,COc1c(C)cccc1C(=O)Nc1ccc(N2CCCC2)cc1,4.85 µg/mL
4,Nc1ncnc2c1[nH]c(=S)n2CCOc1cccc2ccccc12,10.9 µg/mL
5,CCCCn1c(=N)n(CC(O)COc2cccc(C)c2)c2ccccc21 (centres undefined),6.05 µg/mL
6,CCC(=O)Oc1cccc2ccc(/C=C/c3ccccc3F)nc12,< 0.1 µg/mL
7,Cc1cc(N2CCCC2)c(C)cc1/C=C\[N+](=O)[O-],> 50 µg/mL (inactive)
8,O=C(CSc1ccc(C(F)(F)F)cc1[N+](=O)[O-])OC1CCCCC1,1.26 µg/mL
9,Cc1ccc(C(C)(C)C)c(OCCCn2ccnc2)c1,3.87 µg/mL
10,COc1cc(OC)cc(C(=O)NC(=S)N2CCCCCC2)c1,2.83 µg/mL
11,CC1=NN(C(=S)Cc2ccccc2)C(C)(O)C1 (centres undefined),2.79 µg/mL
12,NC(=O)c1c(NC(=O)c2cc3ccccc3oc2=O)sc2c1CCCCCC2,1.03 µg/mL
13,CC(NC(=S)NC(=O)c1ccc(-c2ccccc2)cc1)c1ccccc1 (centres undefined),5.85 µg/mL
14,CCOC(=O)COc1c(Cl)cc(/C=C(/C#N)c2nc3ccc(OC)cc3[nH]2)cc1Cl,0.2 µg/mL
15,O=[N+]([O-])c1ccc(NC(=S)NCc2ccc(F)cc2)cc1,4.86 µg/mL
16,CCc1nc2sc(C(=O)c3ccccc3)c(N)c2cc1C,> 50 µg/mL (inactive)
17,C=C(C)Cn1c(=S)[nH]c2sc3c(c2c1=O)CCc1ccccc1-3,> 50 µg/mL (inactive)
18,COc1cc(/C=C/c2ccc3cccc(O)c3n2)cc([N+](=O)[O-])c1O,0.41 µg/mL
19,CCc1ccc(C2C3=C(CC(C)(C)CC3=O)NC3=C2C(=O)c2ccccc23)cc1 (centres undefined),4.44 µg/mL
20,O=S1(=O)C=CC2ON=C(c3ccc(C(F)(F)F)cc3)C21 (centres undefined),3.08 µg/mL
21,O=C(CSc1ccc(Br)cc1)Nc1cccc(Cl)c1,1.51 µg/mL
22,Cc1cc(O)ccc1Nc1nc(-c2ccccn2)cs1,1.42 µg/mL
23,O=C(CSc1ccc(Br)cc1)Nc1ccccc1,7.69 µg/mL

row,SMILES,IC50
1,O=S(Cc1ccccc1)c1nc2ccccc2s1 (centres undefined),3.15 µg/mL
2,CCOC(=O)COc1ccc(-c2ccc(C)cc2)cc1,0.33 µg/mL
3,CCCS(=O)(=O)c1nnnn1-c1cccc(OC)c1,0.65 µg/mL
4,CCOc1ccc(Nc2nc(N)c(C(=O)C(C)(C)C)s2)cc1,5.96 µg/mL
5,CCOc1cc(CNC(C)C23CC4CC(CC(C4)C2)C3)cc(Cl)c1OCC(=O)NC(C)(C)C (centres undefined),3.06 µg/mL
6,Cc1ccc(-c2csc3nc4c5ccccc5c(NCCCN5CCOCC5)nn4c(=O)c23)cc1,> 50 µg/mL (inactive)
7,O=c1c2ccccc2nc(/C=C/c2ccc(Br)cc2)n1-c1ccc(O)cc1,> 50 µg/mL (inactive)
8,Cc1cc(C)c2nc(NC3=NC(c4ccccc4)CC(=O)N3)nc(C)c2c1 (centres undefined),> 50 µg/mL (inactive)
9,O=C(NC(=S)N1CCCC1)c1ccc(-c2ccccc2)cc1,1.43 µg/mL
10,CCOC(=O)C(C)Oc1ccc2c(=O)c(Oc3ccccc3Cl)coc2c1 (centres undefined),8.87 µg/mL
11,COC(=O)C1=C(C)NC2=C(C(=O)CC(c3ccc(F)cc3)C2)C1c1ccccc1Cl (centres undefined),3.64 µg/mL
12,S=C(NCc1ccc(Cl)cc1)N1CCN(C/C=C/c2ccccc2)CC1,1.99 µg/mL
13,Cc1cccc(NC(=O)c2cc(-c3cccs3)nc3ccccc23)n1,1.82 µg/mL
14,C#CCOc1c(Cl)cc(/C=C/[N+](=O)[O-])cc1Cl,> 50 µg/mL (inactive)
15,O=C(NCCc1ccc(Cl)cc1)C12CC3CC(CC(C3)C1)C2,13.7 µg/mL
16,CCN(CC)C(=S)NC(=O)c1ccc(Cl)cc1,1.43 µg/mL
17,Cc1ccc(C(=O)N2CCN(c3ccc(NC(=O)COc4c(C)cc(C)cc4Cl)cc3)CC2)cc1,8.74 µg/mL
18,CCOC(=O)COc1ccc2c(=O)c(-c3ccc(OC)cc3)c(C)oc2c1,1.29 µg/mL
19,CCOC(=O)COc1ccc2ccccc2c1/C=C(\C)[N+](=O)[O-],0.5 µg/mL
20,Cc1cc(OC(=O)c2ccco2)c2c3c(c(=O)oc2c1)CCCC3,23.4 µg/mL
21,CCOC(=O)COc1ccc(S(=O)(=O)N2CCc3ccccc3C2)cc1,0.64 µg/mL
22,Cc1ccc(NC(CC(=O)c2ccc([N+](=O)[O-])cc2)c2ccccc2)cc1 (centres undefined),49.2 µg/mL
